Assay results: ChEMBL document CHEMBL1201862, “PubChem BioAssay data set” (2004)
The source made the active and inactive calls.

Legend:
[1] = HEp-2 cell cytotoxicity, dose response, cytotoxicity control for RSV inhibitor project, HTS (AID 2410); type: functional; details: human respiratory syncytial virus
[2] = target: T1, Aminopeptidase N (Plasmodium falciparum FcB1/Columbia, UniProt O96935); test: P. falciparum M1AAP inhibitors, biochemical, fluorogenic H-Leu-NHMec substrate, 1536-well (AID 1445); parameters: species or system Plasmodium falciparum 3D7, 3D7
T1 sequence (O96935 whole entry): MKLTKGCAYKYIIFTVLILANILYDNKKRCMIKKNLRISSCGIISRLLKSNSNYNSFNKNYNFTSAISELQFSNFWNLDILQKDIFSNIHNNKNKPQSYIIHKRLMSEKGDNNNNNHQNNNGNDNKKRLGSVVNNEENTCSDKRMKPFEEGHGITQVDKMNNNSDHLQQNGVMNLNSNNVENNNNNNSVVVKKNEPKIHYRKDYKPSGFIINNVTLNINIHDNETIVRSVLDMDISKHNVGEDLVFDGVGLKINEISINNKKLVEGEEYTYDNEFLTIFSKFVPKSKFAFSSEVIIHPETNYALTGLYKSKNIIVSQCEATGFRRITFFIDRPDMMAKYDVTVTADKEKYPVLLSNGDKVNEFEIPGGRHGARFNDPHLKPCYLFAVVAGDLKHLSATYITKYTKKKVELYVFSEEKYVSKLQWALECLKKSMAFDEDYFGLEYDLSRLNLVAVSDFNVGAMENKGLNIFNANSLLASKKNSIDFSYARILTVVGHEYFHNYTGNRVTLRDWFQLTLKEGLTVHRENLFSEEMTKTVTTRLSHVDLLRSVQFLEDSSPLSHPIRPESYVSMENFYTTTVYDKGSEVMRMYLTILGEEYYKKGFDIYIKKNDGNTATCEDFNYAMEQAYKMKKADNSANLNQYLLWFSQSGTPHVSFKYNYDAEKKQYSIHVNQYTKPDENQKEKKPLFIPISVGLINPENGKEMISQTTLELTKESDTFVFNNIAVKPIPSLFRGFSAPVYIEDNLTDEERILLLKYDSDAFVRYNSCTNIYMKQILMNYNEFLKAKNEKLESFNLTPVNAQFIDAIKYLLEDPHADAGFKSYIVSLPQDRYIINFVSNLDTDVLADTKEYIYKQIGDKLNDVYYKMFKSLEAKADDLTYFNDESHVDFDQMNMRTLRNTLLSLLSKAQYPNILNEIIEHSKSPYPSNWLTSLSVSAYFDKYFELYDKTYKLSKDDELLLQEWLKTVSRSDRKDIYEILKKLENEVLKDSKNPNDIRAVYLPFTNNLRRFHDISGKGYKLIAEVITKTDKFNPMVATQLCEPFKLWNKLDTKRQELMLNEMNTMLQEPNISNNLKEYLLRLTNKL

[3] = cells
[4] = target: Voltage-dependent T-type calcium channel subunit alpha-1H (Homo sapiens, UniProt O95180); type: functional;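 note: channel activity triggered by adding a high calcium stimulation buffer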
[5] = Luminescence Cell-Based Dose Confirmation HTS to Identify Activators of 5'UTR Stem-Loop Driven Alpha-Synuclein mRNA Translation in H4 Neuroglioblastoma Cells. [Related pubchem assays: 1829 (Project Summary), 1814 (Primary HTS)]; type: functional
[6] = Luminescence Cell-Based Dose Response HTS to Identify Activators of Luciferase Translation or Activity in H4 […] Cells. [Related pubchem assays: 1829 (Project Summary), 1814 (Primary HTS)]; type: functional
[7] = tested on: H4; test: Luminescence Cell-Based Dose Response HTS to Identify Activators of 5'UTR Stem-Loop Driven Prion Protein mRNA Translation in H4 Neuroglioblastoma Cells. [Related pubchem assays: 1829 (Project Summary), 1814 (Primary HTS)]; type: functional; details: Homo sapiens
[8] = inhibitors of intracellular T. cruzi replication, confirmation, NIH3T3 host cells, beta-gal luminescence (AID 2044); type: functional, cell-based;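 note: intracellular parasites grown in NIH/3T3 mouse fibroblasts as host cells; luminescent beta-galactosidase reporter signal from transgenic T. cruzi replicating inside host cells; inhibitors lower the luminescence signal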
[9] = cytotoxicity toward NIH3T3 fibroblasts, dose response, counter-screen, cell-based, ATP luminescence, mouse fibroblasts (AID 2010); type: functional;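 note: cells exposed to compound for about 90 hours before reading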
[10] = target: T2, Coagulation factor XII (Homo sapiens, UniProt P00748); type: functional;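 note: activated factor XIIa alpha cleaving a fluorogenic AMC peptide substrate; inhibitor potency from loss of enzyme activity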
T2 sequence (P00748 whole entry): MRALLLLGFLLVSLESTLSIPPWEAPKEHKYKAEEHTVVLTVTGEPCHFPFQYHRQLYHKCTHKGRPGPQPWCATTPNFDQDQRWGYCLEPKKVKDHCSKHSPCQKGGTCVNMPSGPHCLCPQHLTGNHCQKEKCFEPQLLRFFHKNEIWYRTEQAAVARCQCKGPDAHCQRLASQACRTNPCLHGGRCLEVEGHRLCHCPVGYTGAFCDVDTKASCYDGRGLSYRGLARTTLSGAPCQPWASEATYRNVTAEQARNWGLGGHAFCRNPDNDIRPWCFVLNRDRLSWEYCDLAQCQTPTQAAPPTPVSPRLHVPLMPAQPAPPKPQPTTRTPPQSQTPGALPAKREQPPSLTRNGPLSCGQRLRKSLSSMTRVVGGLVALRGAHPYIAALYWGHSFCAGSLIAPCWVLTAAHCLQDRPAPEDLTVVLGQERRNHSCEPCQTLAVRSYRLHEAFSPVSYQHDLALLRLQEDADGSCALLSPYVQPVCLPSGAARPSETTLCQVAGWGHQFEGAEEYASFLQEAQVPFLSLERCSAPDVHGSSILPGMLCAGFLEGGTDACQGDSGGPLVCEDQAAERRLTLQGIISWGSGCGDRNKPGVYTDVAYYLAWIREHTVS

[11] = target: T3, Protein skinhead-1 (Caenorhabditis elegans, UniProt P34707); type: functional
T3 sequence (P34707 whole entry): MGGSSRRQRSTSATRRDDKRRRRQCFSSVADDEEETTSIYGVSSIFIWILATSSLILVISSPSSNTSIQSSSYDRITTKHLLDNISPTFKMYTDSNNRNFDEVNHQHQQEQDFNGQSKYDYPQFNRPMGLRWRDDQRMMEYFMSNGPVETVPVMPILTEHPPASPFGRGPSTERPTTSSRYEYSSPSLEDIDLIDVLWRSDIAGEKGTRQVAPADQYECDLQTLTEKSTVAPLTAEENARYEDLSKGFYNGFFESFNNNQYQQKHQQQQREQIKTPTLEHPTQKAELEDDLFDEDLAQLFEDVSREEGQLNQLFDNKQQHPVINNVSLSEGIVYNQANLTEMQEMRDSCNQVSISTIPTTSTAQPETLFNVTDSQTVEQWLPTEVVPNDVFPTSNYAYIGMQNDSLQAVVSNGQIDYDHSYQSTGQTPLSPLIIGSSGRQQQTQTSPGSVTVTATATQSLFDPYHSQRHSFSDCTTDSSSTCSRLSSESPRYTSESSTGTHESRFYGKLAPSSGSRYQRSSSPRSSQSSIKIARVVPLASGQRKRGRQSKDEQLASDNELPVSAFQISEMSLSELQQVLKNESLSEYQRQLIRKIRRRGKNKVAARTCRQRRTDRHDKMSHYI

[12] = target: Glyceraldehyde-3-phosphate dehydrogenase (Homo sapiens, UniProt P04406)
[13] = target: T4, Alkaline phosphatase, tissue-nonspecific isozyme (Homo sapiens, UniProt P05186); test: human TNAP enzyme inhibitors, SAR follow-up, biochemical, luminescent, dose response (AID 1056)
T4 sequence (P05186 whole entry): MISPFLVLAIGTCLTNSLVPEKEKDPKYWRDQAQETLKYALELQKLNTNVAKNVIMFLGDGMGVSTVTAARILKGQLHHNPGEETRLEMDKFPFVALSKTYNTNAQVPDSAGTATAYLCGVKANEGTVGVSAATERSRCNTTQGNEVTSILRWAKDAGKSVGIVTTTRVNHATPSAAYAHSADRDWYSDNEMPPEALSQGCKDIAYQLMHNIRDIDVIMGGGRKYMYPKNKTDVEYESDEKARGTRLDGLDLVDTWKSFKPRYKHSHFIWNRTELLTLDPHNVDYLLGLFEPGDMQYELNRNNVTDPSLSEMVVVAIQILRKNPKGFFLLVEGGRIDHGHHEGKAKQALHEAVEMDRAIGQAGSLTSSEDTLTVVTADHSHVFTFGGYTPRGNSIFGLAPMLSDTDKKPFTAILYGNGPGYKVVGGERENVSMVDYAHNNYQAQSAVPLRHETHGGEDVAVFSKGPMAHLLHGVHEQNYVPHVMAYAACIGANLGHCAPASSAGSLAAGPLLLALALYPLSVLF

[14] = target: Peroxisome proliferator-activated receptor gamma/Nuclear receptor coactivator 1 (Homo sapiens, UniProt P37231); test: (§1) TR-FRET dose response biochemical High Throughput Screening assay for agonists of the steroid receptor coactivator 1 (SRC-1) recruitment by the peroxisome proliferator-activated receptor gamma (PPAR gamma): non-selective agonists. [Related pubchem assays (depositor defined):AID1300, AID1808, AID504735, AID631]; type: protein assay
[15] = target: Peroxisome proliferator-activated receptor gamma/Nuclear receptor coactivator 3 (Homo sapiens, UniProt P37231); test: as §1, with “3 (SRC-3)” for “1 (SRC-1)”, “assays: 1301 (Confirmation screen.), 1048 (Primary screen.)]” for “assays (depositor defined):AID1300, AID1808, AID504735, AID631]”; type: functional
[16] = target: Peroxisome proliferator-activated receptor gamma/Nuclear receptor coactivator 2 (Homo sapiens, UniProt P37231); test: TR-FRET dose response biochemical High Throughput Screening assay for agonists of the steroid receptor coactivator 2 (SRC-2) recruitment by the peroxisome proliferator-activated receptor gamma (PPAR gamma): non-selective agonists. [Related pubchem assays: 1297, 1032 ]; type: functional
[17] = cytotoxicity in HEK-293T cells, dose response, cytotoxicity control for BCR NF-kB inhibitor project, luminescence, B-cell screen hits (AID 489021); type: functional, cell-based;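 note: HEK-293T cells carrying an NF-kB luciferase reporter; cells exposed to compound for about 14 hours before viability readout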
[18] = tested on: INS1; test: beta cell apoptosis inhibitors, cytokine rescue, dose response, luminescence, retest (AID 449756); type: functional, cell-based; details: Rattus norvegicus;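 note: cell death triggered by IL-1 beta plus TNF-alpha plus IFN-gamma mixture; protective hits raise ATP signal compared with cytokine alone wells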
[19] = THP-1 cell cytotoxicity, dose response, cytotoxicity control for non-replicating M. tuberculosis project (AID 489025); type: functional
[20] = HepG2 cell cytotoxicity, dose response, cytotoxicity control for non-replicating M. tuberculosis project (AID 489018); type: functional; details: Mycobacterium tuberculosis
[21] = Vero E6 cell cytotoxicity, dose response, cytotoxicity control for non-replicating M. tuberculosis project, secondary assay (AID 492998); type: functional, VeroE6; details: Vero C1008

Sequence of Glyceraldehyde-3-phosphate dehydrogenase (P04406 whole entry): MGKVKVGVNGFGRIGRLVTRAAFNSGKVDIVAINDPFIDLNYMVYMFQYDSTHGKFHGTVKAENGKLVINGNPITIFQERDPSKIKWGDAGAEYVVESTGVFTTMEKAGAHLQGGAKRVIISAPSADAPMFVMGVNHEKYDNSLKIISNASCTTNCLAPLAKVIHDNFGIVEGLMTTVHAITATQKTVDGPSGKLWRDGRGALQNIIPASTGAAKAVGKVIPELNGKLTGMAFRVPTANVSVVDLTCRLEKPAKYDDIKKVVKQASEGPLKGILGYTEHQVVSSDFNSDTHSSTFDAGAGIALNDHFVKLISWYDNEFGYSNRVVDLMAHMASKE
Sequence of Voltage-dependent T-type calcium channel subunit alpha-1H (O95180 whole entry): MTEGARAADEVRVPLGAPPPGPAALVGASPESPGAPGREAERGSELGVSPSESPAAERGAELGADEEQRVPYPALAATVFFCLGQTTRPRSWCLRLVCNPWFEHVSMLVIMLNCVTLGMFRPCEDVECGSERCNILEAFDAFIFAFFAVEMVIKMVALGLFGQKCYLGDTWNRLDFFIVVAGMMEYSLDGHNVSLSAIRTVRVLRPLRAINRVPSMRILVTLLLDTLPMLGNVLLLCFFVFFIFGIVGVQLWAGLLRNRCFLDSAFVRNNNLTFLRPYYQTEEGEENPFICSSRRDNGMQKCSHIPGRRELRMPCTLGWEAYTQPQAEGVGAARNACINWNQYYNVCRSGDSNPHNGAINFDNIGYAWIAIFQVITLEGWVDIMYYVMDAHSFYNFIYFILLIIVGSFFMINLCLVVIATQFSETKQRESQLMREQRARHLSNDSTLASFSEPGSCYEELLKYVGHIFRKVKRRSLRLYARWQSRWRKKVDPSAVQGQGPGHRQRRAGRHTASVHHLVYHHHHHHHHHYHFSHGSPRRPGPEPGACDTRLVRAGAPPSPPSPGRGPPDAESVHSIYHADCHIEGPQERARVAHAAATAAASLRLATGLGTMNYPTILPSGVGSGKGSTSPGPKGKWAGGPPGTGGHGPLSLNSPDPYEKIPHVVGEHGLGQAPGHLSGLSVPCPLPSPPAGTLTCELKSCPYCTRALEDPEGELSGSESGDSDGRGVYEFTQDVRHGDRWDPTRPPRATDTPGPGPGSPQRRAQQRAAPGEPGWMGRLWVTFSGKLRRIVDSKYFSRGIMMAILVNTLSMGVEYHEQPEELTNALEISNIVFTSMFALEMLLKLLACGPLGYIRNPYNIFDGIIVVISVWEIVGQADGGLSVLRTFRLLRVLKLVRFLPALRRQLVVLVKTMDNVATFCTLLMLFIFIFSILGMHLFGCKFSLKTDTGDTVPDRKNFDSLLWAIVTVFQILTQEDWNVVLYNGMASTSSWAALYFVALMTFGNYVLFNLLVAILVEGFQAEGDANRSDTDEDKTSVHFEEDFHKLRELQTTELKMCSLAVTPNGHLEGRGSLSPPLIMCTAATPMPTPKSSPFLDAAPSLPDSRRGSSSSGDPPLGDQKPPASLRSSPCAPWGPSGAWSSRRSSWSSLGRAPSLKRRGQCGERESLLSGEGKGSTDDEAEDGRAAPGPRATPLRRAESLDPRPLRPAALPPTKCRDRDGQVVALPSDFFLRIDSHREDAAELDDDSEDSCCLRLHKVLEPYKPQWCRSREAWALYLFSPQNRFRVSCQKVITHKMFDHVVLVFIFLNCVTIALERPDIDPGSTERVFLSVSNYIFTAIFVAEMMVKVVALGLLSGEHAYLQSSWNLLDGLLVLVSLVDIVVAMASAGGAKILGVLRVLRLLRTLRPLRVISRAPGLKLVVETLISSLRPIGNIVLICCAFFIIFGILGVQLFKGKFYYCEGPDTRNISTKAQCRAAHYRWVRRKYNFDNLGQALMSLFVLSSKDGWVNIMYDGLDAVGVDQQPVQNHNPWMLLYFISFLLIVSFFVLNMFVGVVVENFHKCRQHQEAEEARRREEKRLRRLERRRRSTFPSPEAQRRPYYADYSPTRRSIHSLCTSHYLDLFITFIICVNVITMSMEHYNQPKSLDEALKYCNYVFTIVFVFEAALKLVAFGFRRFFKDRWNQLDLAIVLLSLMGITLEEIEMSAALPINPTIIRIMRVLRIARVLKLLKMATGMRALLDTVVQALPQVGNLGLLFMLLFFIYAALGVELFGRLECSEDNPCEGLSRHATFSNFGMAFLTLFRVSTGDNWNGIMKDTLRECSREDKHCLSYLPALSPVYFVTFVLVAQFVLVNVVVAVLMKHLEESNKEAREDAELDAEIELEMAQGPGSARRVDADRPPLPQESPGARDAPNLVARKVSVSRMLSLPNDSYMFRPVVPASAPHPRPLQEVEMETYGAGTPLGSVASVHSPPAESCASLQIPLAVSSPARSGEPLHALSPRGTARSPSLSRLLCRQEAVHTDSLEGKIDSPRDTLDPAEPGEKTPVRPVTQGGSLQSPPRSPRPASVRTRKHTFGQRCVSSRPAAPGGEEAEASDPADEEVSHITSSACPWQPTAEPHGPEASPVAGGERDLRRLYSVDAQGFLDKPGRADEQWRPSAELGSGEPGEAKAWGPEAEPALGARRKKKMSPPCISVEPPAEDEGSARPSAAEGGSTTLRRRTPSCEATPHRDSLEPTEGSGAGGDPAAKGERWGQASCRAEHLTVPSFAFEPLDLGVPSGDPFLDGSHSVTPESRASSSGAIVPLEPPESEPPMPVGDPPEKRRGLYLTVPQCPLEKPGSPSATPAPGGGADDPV
Sequence of Peroxisome proliferator-activated receptor gamma/Nuclear receptor coactivator 2 (P37231 whole entry): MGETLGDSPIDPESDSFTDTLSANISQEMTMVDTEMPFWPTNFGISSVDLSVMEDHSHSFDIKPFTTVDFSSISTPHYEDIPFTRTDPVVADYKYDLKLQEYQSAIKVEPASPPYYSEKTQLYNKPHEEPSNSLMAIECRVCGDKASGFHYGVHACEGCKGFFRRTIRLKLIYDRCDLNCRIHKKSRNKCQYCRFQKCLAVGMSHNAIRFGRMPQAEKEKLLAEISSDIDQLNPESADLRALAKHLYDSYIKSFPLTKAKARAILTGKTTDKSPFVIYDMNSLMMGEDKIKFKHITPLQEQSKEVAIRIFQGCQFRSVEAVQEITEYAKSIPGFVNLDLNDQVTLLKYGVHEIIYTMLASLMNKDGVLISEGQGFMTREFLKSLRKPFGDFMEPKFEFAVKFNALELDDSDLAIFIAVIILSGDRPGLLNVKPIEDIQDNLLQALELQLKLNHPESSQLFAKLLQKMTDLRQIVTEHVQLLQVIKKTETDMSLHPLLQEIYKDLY
Sequence of Peroxisome proliferator-activated receptor gamma/Nuclear receptor coactivator 2 (Q15596 whole entry, further chain): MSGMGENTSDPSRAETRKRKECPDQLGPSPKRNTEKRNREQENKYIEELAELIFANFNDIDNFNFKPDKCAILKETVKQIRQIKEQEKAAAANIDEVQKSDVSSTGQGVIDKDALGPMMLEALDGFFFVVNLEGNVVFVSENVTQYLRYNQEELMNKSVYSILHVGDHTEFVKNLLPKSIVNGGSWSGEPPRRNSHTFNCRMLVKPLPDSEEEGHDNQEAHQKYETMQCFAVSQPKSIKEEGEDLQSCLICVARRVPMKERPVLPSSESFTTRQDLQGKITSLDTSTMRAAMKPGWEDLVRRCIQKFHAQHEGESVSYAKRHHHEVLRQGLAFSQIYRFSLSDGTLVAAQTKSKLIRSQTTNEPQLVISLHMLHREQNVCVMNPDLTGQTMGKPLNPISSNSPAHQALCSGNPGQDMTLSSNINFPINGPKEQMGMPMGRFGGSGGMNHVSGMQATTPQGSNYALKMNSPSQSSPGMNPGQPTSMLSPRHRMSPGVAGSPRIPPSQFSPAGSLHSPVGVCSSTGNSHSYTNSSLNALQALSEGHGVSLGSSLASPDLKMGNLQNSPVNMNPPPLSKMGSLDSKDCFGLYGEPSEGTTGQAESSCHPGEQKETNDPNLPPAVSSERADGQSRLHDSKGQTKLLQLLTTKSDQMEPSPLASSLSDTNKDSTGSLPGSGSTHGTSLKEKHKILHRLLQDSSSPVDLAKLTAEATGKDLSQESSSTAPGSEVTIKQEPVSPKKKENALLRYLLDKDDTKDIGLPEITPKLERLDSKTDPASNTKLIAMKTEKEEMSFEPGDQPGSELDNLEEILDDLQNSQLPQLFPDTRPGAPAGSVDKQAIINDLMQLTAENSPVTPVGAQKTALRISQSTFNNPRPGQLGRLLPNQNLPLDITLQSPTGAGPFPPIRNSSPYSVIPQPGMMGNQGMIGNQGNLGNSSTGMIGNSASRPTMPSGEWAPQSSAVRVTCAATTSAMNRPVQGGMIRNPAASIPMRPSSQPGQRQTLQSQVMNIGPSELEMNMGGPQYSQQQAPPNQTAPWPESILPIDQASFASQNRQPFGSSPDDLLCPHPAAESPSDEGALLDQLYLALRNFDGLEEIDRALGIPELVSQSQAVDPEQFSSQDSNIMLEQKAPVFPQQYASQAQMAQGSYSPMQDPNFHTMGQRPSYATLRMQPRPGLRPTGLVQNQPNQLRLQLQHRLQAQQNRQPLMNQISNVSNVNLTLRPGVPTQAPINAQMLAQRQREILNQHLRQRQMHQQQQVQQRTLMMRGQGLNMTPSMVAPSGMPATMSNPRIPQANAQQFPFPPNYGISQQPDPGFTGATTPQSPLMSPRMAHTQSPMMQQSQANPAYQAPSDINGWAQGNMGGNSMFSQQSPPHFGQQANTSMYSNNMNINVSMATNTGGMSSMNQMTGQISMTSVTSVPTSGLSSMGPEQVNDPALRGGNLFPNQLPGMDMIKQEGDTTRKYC

In the case of `COc1ccc(/C=C2/SC(=O)N(NS(=O)(=O)c3ccccc3)C2=S)cc1OC`, the CC50 [1] is reported as 31.5 µM (active), the IC50 [2] is reported as 30.5 µM (active) and the IC50 [3] is reported as 18.8 µM (active).

With `Cc1ccc(CCNC(=O)C[S+]([O-])Cc2nc(-c3cccc(C)c3)oc2C)cc1` (centres undefined) the EC50 [4] was 4.04 µM (active).

For `O=C(Nc1nc(-c2ccc(Cl)s2)cs1)c1cccs1`, the EC50 [5] was 34.3 µM (active), the EC50 [6] was 15.1 µM (active) and the EC50 [7] was 5.03 µM (active). The EC50 [8] was 1.04 µM (active), the EC50 [9] was 8.5 µM (active) and the IC50 [10] was 23.9 µM (active). The IC50 [11] was 81.2 µM (inactive).

In the case of `CCOC(=O)c1[nH]nc2c1COc1ccccc1-2`, the IC50 [12] is reported as > 100 µM (not active) and the IC50 [13] is reported as > 100 µM (inactive).

In the case of `CN(C)C1=C(Cl)C(=O)N(c2nnc(Cc3ccccc3)[nH]2)C1=O`, the IC50 [12] is reported as > 100 µM (not active) and the IC50 [13] is reported as 4.49 µM (active).

For `Cn1c(=O)cc(SCC(=O)Nc2ccccn2)c2ccccc21`, the EC50 [14] was > 79.4 µM (inactive), the EC50 [15] was > 79.4 µM (not active) and the EC50 [16] was > 79.4 µM (not active).

With `Cc1cccc(Nc2nc(-c3ccccc3)c(C(=O)Nc3cccnc3)s2)c1` the EC50 [14] was 7.34 µM (active), the EC50 [15] was > 79.4 µM (not active) and the EC50 [16] was 7.24 µM (active).

For `COc1ccc(Nc2nnc(SC(C(=O)Nc3cc(C)ccc3C)c3ccccc3)s2)cc1` (centres undefined), the IC50 [10] was > 50 µM (inactive).

In the case of `CCN1C(=O)c2cccc3c(S(=O)(=O)NCC4CCCO4)ccc1c23` (centres undefined), the IC50 [17] is reported as > 80 µM (inactive).

For `O=C(Nc1ccc(OCC(=O)N2CCC(Cc3ccccc3)CC2)cc1)c1ccco1`, the EC50 [4] was 2.36 µM (active) and the AC50 [18] was 5.93 µM (active).

For `Nc1ccc(-c2cc(C(=O)O)n[nH]2)cc1`, the IC50 [12] was > 100 µM (not active) and the IC50 [13] was 8.69 µM (active).

In the case of `CCCCCCn1c(-c2ccco2)nc2oc3cc(OC)ccc3c(=O)c2c1=O`, the IC50 [17] is reported as > 80 µM (inactive).

With `CS(=O)(=O)N(CC(=O)N/N=C/c1ccccc1C(=O)O)c1cccc(Cl)c1Cl` the IC50 [10] was > 50 µM (inactive).

With `C/C(=N\NC(=O)c1ccc(CN2CCc3ccccc3C2)cc1)c1ccccc1O` the EC50 [8] was 1.06 µM (active), the EC50 [9] was 3.88 µM (active) and the CC50 [19] was 15.3 µM (active). For the same compound, the CC50 [20] was 10.7 µM (active) and the CC50 [21] was 13.9 µM (active).
